{"source": "patent US20070212331A1", "about": "“Methods and compositions for selectively killing cells” (priority 2006, published 2007)", "format_in_all_cases": "cell-based", "key": {"[1]": {"tested_on": "IIC9 cells (embryonic fibroblasts)", "assay": "IIC9 cell morphology, microscopic examination", "details": "cells preincubated with inhibitor, 50 μM zinc (FIG. 2B-D)", "description": "FIG. 1 depicts zinc-induced cell death in a time and dose dependent manner. (A) IIC9 cells (embryonic fibroblasts) were serum starved for 2 days and treated with the indicated concentrations of zinc for the indicated time periods. Cell death was monitored by trypan blue exclusion as described in the Materials and Methods. (B-D) Zinc-induced cell death is accompanied by morphological changes associated with apoptosis and necrosis. Shown are cells that were incubated with either 50 μM (C) or 200 μM (D) zinc for 6 hours. Control cells (B) were untreated. Cells were examined microscopically for changes in cell shape and size. […] Cell debris, indicative of cell lysis, was evident.\nCells and Incubation Conditions: IIC9 cells were grown in DMEM containing 10% FCS, P/S. Cells were plated in 12-well plates and grown to approximately 70% confluency. At that time, cells were serum arrested by changing the medium to DMEM (low glucose) without FCS. After 48 hours, cells were treated with zinc as described in the text. Cell death was quantified by trypan blue uptake. Cells were incubated with trypan blue (0.04%) for 5 min. Cells were examined microscopically and the number of blue cells and total cells were counted. Four fields were examined for each condition, with a minimum of 100 cells/field. To examine the effects of selective inhibitors, cells were preincubated with the indicated compound for 30 min. prior to zinc treatment."}, "[2]": {"tested_on": "IIC9 cells (embryonic fibroblasts)", "assay": "IIC9 cell death by trypan blue uptake", "details": "for effect on cell viability: high (mM) concentrations; for attenuation of zinc-induced cell death: Z-VAD preincubation"}, "PC12 cells": {"tested_on": "PC12 cells", "assay": "Zinc-induced cell death of PC12 cells", "details": "for effect on cell viability: high (mM) concentrations"}, "ERK1/2": {"tested_on": "ERK1/2", "assay": "ERK1/2 activation in IIC9 cells, Western blot with anti-pERK antibody", "details": "IIC9 cells preincubated with inhibitor", "description": "(§1) Assays: ERK1/2 activation was determined by harvesting cells directly in boiling SDS-PAGE sample buffer and probing corresponding Western Blots with anti-pERK antibody (Cell Signaling). Blots were stripped and reprobed for total ERK (Cell Signaling). Ras activation was determined using the Raf-RBD assay (21,24). Identification of the specific Ras isoform activated was determined by probing the western blot with isoform-specific antibody (Upstate Biotechnology). Transfection of IIC9 cells was carried out using Novafector. Transfection efficiency of these cells is approximately 90%. The constructs for expression of dn-Ras and Bcl-Xl were kindly provided by Dr. J. Corbett and Dr. Chinnaduri (SLU)."}, "ERK": {"tested_on": "ERK", "assay": "ERK activation (pERK) in PC12 cells", "details": "PC12 cells preincubated with inhibitor"}, "Ras": {"tested_on": "Ras", "assay": "Ras activation in IIC9 cells, Raf-RBD pull-down assay", "description": "as §1\nBecause Ras is a common upstream activator of ERK1/2 (36), we reasoned that zinc may induce the phosphorylation of ERK1/2 via Ras. This was examined by incubating IIC9 cells with 100 uM zinc and assessing Ras activation by RBD pull-down of GTP-Ras followed by Western blot analysis with a pan-Ras antibody. […] The critical role of Ras in mediating the effects of zinc was confirmed by examining the effect of over-expression of dnRas. […] Consistent with Ras as the upstream activator of the cytotoxic effect of zinc on IIC9, expression of dn H-Ras also attenuates zinc-mediated cell death (FIG. 5B)."}, "[3]": {"details": "IIC9 cells, same range of concentrations as zinc"}, "[4]": {"details": "PC12 cells, same range of concentrations as zinc"}}, "note": "Entries after “also recorded” stand apart in the source; their conditions may differ. Read-outs that look alike come from different tables or passages of the source. Where a SMILES comes first, the peptide text is derived from it. The star is where a group is joined. Cbz = O=C(OCc1ccccc1)*; CH2F = FC*", "data": [{"compound": "N#CC(=C(/N)Sc1ccccc1N)/C(C#N)=C(\\N)Sc1ccccc1N", "note": "[U0126]", "values": [{"measurement": "effect on morphological changes induced by zinc", "setting": "[1]", "result": "limited; also recorded: prevented the morphological changes"}, {"measurement": "cell death in cells pretreated with inhibitor", "setting": "[2]", "result": "Little or no death"}, {"measurement": "effect of preincubation with inhibitor on zinc-mediated cell death", "setting": "[2]", "result": "inhibits zinc-induced cell death"}, {"measurement": "effect of preincubation on zinc-induced cell death", "setting": "PC12 cells", "result": "greatly attenuated"}, {"measurement": "effect of inhibitor on ERK activation by zinc", "setting": "ERK1/2", "result": "significantly reduces ERK activation; also recorded: significantly reduced"}, {"measurement": "effect of preincubation on zinc-induced ERK activation", "setting": "ERK", "result": "attenuated that activation"}]}, {"compound": "O=S(=O)([O-])[O-].[Zn+2]", "note": "[ZnSO4]", "values": [{"measurement": "cell death by metal salts", "setting": "[2]; [3]", "result": "equally effective as ZnCl2"}, {"measurement": "cell death (apoptosis or necrosis) by metal salts", "setting": "PC12 cells; [4]", "result": "equally effective as ZnCl2"}]}, {"compound": "[Mg]", "note": "[Mg]", "values": [{"measurement": "effect on cell viability", "setting": "[2]; IIC9 cells", "result": "no effect on cell viability"}, {"measurement": "effect on cell viability", "setting": "PC12 cells; PC12 cells", "result": "no effect on cell viability"}]}, {"compound": "O=S(=O)([O-])[O-].[Cu+2]", "note": "[CuSO4]", "values": [{"measurement": "cell death by metal salts", "setting": "[2]; [3]", "result": "does not result in the cell death"}, {"measurement": "cell death (apoptosis or necrosis) by metal salts", "setting": "PC12 cells; [4]", "result": "No cell death"}]}, {"compound": "thrombin", "values": [{"measurement": "activation of Ras", "setting": "Ras; IIC9 cells stimulated with thrombin, previous finding of the inventors", "result": "3- to 5 fold"}, {"measurement": "Ras isoform activated", "setting": "Ras; IIC9 cells, isoform-specific antibody", "result": "rapid activation of N-Ras, followed by a sustained activation of K-Ras"}]}, {"compound": "[Mn]", "note": "[Mn]", "values": [{"measurement": "effect on cell viability", "setting": "[2]; IIC9 cells", "result": "no effect on cell viability"}, {"measurement": "effect on cell viability", "setting": "PC12 cells; PC12 cells", "result": "no effect on cell viability"}]}, {"compound": "CC(C)(C)n1nc(-c2ccc(Cl)cc2)c2c(N)ncnc21", "note": "[PP2]", "values": [{"measurement": "effect of inhibitor on ERK activation by zinc", "setting": "ERK1/2", "result": "does not inhibit zinc activation of ERK1/2"}]}, {"compound": "COc1cc2ncnc(Nc3cccc(Br)c3)c2cc1OC", "note": "[PD153035]", "values": [{"measurement": "effect of inhibitor on ERK activation by zinc", "setting": "ERK1/2", "result": "does not alter ERK activation"}]}, {"compound": "C[S+]([O-])c1ccc(-c2nc(-c3ccncc3)c(-c3ccc(F)cc3)[nH]2)cc1", "note": "(stereo not drawn) [SB203580]", "values": [{"measurement": "effect of preincubation with inhibitor on zinc-mediated cell death", "setting": "[2]; 30 min preincubation, then 50 μM zinc (FIG. 2A)", "result": "does not affect zinc-mediated cell death"}]}, {"compound": "[Ca]", "note": "[Ca]", "values": [{"measurement": "effect on cell viability", "setting": "[2]; IIC9 cells", "result": "no effect on cell viability"}, {"measurement": "effect on cell viability", "setting": "PC12 cells; PC12 cells", "result": "no effect on cell viability"}]}, {"compound": "[Cl][Ni][Cl]", "note": "[NiCl2]", "values": [{"measurement": "cell death by metal salts", "setting": "[2]; [3]", "result": "does not result in the cell death"}, {"measurement": "cell death (apoptosis or necrosis) by metal salts", "setting": "PC12 cells; [4]", "result": "No cell death"}]}, {"compound": "[Cd]", "note": "[Cd]", "values": [{"measurement": "cell death (apoptosis or necrosis) by metal salts", "setting": "PC12 cells; [4]", "result": "did result in cell death"}]}, {"compound": "[Cl-].[Cl-].[Co+2]", "note": "[CoCl2]", "values": [{"measurement": "cell death by metal salts", "setting": "[2]", "result": "does not result in the cell death"}, {"measurement": "cell death (apoptosis or necrosis) by metal salts", "setting": "PC12 cells", "result": "No cell death"}]}, {"compound": "[Li]", "note": "[Li]", "values": [{"measurement": "effect on cell viability", "setting": "[2]; IIC9 cells", "result": "no effect on cell viability"}, {"measurement": "effect on cell viability", "setting": "PC12 cells; PC12 cells", "result": "no effect on cell viability"}]}, {"compound": "CC(NC(=O)C(NC(=O)OCc1ccccc1)C(C)C)C(=O)NC(CC(=O)O)C(=O)CF", "note": "(stereo not drawn) [Z-VAD] (Cbz-Val-Ala-Asp-CH2F; configuration not given here)", "values": [{"measurement": "cell death in cells pretreated with Z-VAD", "setting": "[2]; 50 μM zinc, first 6 hours of zinc treatment", "result": "little cell death"}, {"measurement": "attenuation of zinc-induced cell death", "setting": "[2]; 50 μM zinc, 21 h", "result": 50, "unit": "%"}, {"measurement": "attenuation of zinc-induced cell death", "setting": "[2]; 100 μM zinc, 21 h", "result": "limited attenuation"}, {"measurement": "attenuation of zinc-induced cell death", "setting": "[2]; 100 μM zinc, first 6 hours", "result": "approximately 50%"}, {"measurement": "effect of Z-VAD on zinc-mediated cell death", "setting": "[2]; early hours (3-6), indicated zinc concentrations (FIG. 3A)", "result": "greatly attenuated death"}]}]}
